These are literature values, as cited in patent publication US11596701B2, “Disinfection method using a disinfection agent formed in situ by reaction of H2O2 and NO2-” (LEIBNIZ-INSTITUT FÜR PLASMAFORSCHUNG UND TECHNOLOGIE E.V., priority 2018, dated 2023).

Read-outs that look alike come from different tables or passages of the source.

The conditions of this series: room temperature.

As for peroxynitric acid, the half-life entry is “about 3 minutes” (Lammel et al., 1990) and “about 10 minutes” (as stated in US 20170172149).
